Results from the supplement of paper PMC10307832.

Tests used:
Experiment in all cases: relative viability (nuclei count vs DMSO), 5 days (fraction); higher = more cells survive
[1] = compound: O=C(/C=C/c1ccccc1)NC(NC(=S)Nc1cccc2cccnc12)C(Cl)(Cl)Cl [Salubrinal] + O=C(c1cc(Cc2n[nH]c(=O)c3ccccc23)ccc1F)N1CCN(C(=O)C2CC2)CC1 [Olaparib] (partner 8 µM)
Procedure, shortened: (§1)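 Each reported value is a median over duplicate plates. It expresses relative viability: treated-well nuclei count divided by vehicle-well nuclei count. Lung cancer cell lines in 1536-well plates were dosed by pin tool a day after seeding, alone with one drug or with a fixed anchor-drug dose plus five library-drug doses (not always all listed) in √10 steps, and nuclei were counted after 5 days.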

[2] = compound: O=C(/C=C/c1ccccc1)NC(NC(=S)Nc1cccc2cccnc12)C(Cl)(Cl)Cl [Salubrinal] + C[C@@H](Oc1cc(-c2cnn(C3CCNCC3)c2)cnc1N)c1c(Cl)ccc(F)c1Cl [Crizotinib] (partner 1 µM)
Procedure, shortened: as §1

[3] = compound: Cc1ccc2nc(NCCN)c3ncc(C)n3c2c1 + C[C@]1(O)C[C@@H](c2nc(-c3ccc4ccc(-c5ccccc5)nc4c3)c3c(N)nccn32)C1 [Linsitinib] (partner 1 µM)
Procedure, shortened: as §1

[4] = compound: O=C(/C=C/c1ccccc1)NC(NC(=S)Nc1cccc2cccnc12)C(Cl)(Cl)Cl [Salubrinal] + Nc1nc2[nH]cc(CCc3ccc(C(=O)N[C@@H](CCC(=O)O)C(=O)O)cc3)c2c(=O)[nH]1 [Pemetrexed] (partner 0.2 µM)
Procedure, shortened: as §1

| Cell Line | relative viability ([1]; first compound 0.08 µM) | relative viability ([1]; first compound 0.253 µM) | relative viability ([1]; first compound 0.8 µM) | relative viability ([1]; first compound 2.53 µM) | relative viability ([1]; first compound 8 µM) | relative viability ([2]; first compound 0.08 µM) | relative viability ([2]; first compound 0.253 µM) | relative viability ([2]; first compound 0.8 µM) | relative viability ([2]; first compound 2.53 µM) | relative viability ([2]; first compound 8 µM) | relative viability ([3]; first compound 0.04 µM) | relative viability ([3]; first compound 0.1265 µM) | relative viability ([3]; first compound 0.4 µM) | relative viability ([3]; first compound 1.265 µM) | relative viability ([3]; first compound 4 µM) | relative viability ([4]; first compound 0.08 µM) | relative viability ([4]; first compound 0.253 µM) | relative viability ([4]; first compound 0.8 µM) | relative viability ([4]; first compound 2.53 µM) | relative viability ([4]; first compound 8 µM) |
| --- | --- | --- | --- | --- | --- | --- | --- | --- | --- | --- | --- | --- | --- | --- | --- | --- | --- | --- | --- | --- |
| COR-L23 | 0.392 | 0.323 | 0.355 | 0.315 | 0.325 | 0.749 | 0.775 | 0.699 | 0.563 | 0.492 | 0.993 | 0.773 | 0.873 | 0.988 | 0.816 | 0.203 | 0.205 | 0.194 | 0.206 | 0.196 |
| NCI-H2087 | 0.476 | 0.493 | 0.784 | 0.508 | 0.584 | 0.984 | 0.758 | 0.913 | 0.867 | 0.865 | 1.03 | 0.963 | 0.789 | 0.992 | 0.877 | 0.649 | 0.532 | 0.699 | 0.644 | 0.63 |
| LC-2-ad | 0.677 | 0.708 | 0.729 | 0.728 | 0.709 | 0.447 | 0.385 | 0.537 | 0.471 | 0.459 | 0.851 | 0.871 | 0.891 | 0.864 | 0.806 | 0.242 | 0.276 | 0.268 | 0.272 | 0.264 |
| NCI-H1915 | 0.256 | – | 0.257 | 0.28 | 0.273 | 0.994 | 0.643 | 1.03 | 0.875 | 0.836 | 1.1 | – | 1.16 | 1.1 | 1 | 0.477 | – | 0.562 | 0.495 | 0.466 |
| NCI-H2023 | 0.472 | 0.428 | 0.435 | 0.373 | 0.524 | 0.674 | 0.672 | 0.68 | 0.635 | 0.614 | 0.73 | 0.606 | 0.658 | 0.756 | 0.577 | 0.265 | 0.198 | 0.292 | 0.225 | 0.178 |
| COR-L 105 | 0.617 | 0.732 | 0.592 | 0.662 | 0.587 | 0.962 | 0.624 | 0.76 | 0.772 | 0.689 | 1.11 | 0.964 | 0.873 | 1.1 | 0.845 | 1.25 | 0.831 | 1.24 | 1.04 | 1.09 |
| RERF-LC-KJ | 0.901 | 0.838 | 0.996 | 0.753 | 0.951 | 0.81 | 0.718 | 0.803 | 0.806 | 0.887 | 0.84 | 0.895 | 0.863 | 0.795 | 0.73 | 0.458 | 0.496 | 0.501 | 0.446 | 0.415 |
| LXF-289 | 1.27 | 0.918 | 1.25 | 1.14 | 1.07 | 0.869 | 0.73 | 0.818 | 0.757 | 0.8 | 0.981 | 0.949 | 0.967 | 0.975 | 1.01 | 1.06 | 0.891 | 0.988 | 0.851 | 0.851 |
